Among the data in patent US7425557B2, “Inhibitors of glycogen synthase kinase 3” (Novartis Vaccines and Diagnostics, Inc., priority 1998, dated 2008) are IC50 values, retold here.

A word on the IC50: it is the concentration that inhibits the measured activity by half.

The structures appear in SMILES notation.

Sequence of human GSK3β (P49841 whole entry): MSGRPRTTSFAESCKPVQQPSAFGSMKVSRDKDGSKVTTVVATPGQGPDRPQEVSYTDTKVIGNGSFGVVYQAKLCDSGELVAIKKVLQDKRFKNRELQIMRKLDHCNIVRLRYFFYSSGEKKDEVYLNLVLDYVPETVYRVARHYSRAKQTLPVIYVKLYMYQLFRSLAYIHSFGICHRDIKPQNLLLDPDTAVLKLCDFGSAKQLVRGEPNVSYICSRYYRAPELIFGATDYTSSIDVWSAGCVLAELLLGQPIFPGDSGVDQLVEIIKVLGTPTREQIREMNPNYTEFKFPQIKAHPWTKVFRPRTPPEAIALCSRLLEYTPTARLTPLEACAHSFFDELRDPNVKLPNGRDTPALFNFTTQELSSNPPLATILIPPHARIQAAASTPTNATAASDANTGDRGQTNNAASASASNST

This test addresses human GSK3β (Homo sapiens, UniProt P49841). As to the kind of experiment: Screening for GSK3 inhibitory activity using a cell-free assay. It counts as biochemical. Particulars: read-out: IC50 with respect to GSK3. In a few lines: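 Radiometric cell-free assay with recombinant human GSK3β phosphorylating a biotinylated peptide substrate for 3 h. Reactions were stopped with 50 μM ATP/20 mM EDTA and captured on streptavidin plates. Incorporated radiolabel was counted by scintillation and plotted against compound concentration.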
Take `O=[N+]([O-])c1ccc(NCCNc2nccc(-c3ccc(S(=O)(=O)NCc4cccc(Br)c4)cc3)n2)nc1` [[(3-bromophenyl)methyl]({4-[2-({2-[(5-nitro(2-pyridyl))amino]ethyl}-amino)pyrimidin-4-yl]phenyl}sulfonyl)amine]: the IC50 is at most 10 µM. With `O=[N+]([O-])c1ccc(NCCNc2nccc(NCc3cccc(Cl)c3)n2)nc1` [[(3-chlorophenyl)methyl][2-({2-[(5-nitro(2-pyridyl))-amino]ethyl}amino)pyrimidin-4-yl]amine], the IC50 was at most 10 µM. As to `Cc1cccc(CNc2ccnc(NCCNc3ccc([N+](=O)[O-])cn3)n2)c1` [[(3-methylphenyl)methyl][2-({2-[(5-nitro-(2-pyridyl))amino]ethyl}amino)pyrimidin-4-yl]amine], the IC50 was at most 10 µM. Turning to `O=[N+]([O-])c1ccc(NCCNc2nccc(NCc3ccc(Cl)cc3)n2)nc1` [[(4-chlorophenyl)methyl][2-({2-[(5-nitro(2-pyridyl))amino]ethyl}amino)pyrimidin-4-yl]amine], the IC50 was at most 10 µM. Take `O=S(=O)(NCc1ccccc1)c1ccc(-c2ccnc(NCCNc3ccccn3)n2)cc1` [benzyl{[4-(2-{[2-(2-pyridylamino)ethyl]-amino}pyrimidin-4-yl)phenyl]sulfonyl}amine]: the IC50 is at most 10 µM. Regarding `CCCCOC(=O)c1cnc(NCCNc2ccc([N+](=O)[O-])cn2)nc1-c1ccc(C#N)cc1` [butyl 4-(4-cyanophenyl)-2-({2-[(5-nitro(2-pyridyl))amino]ethyl}amino)pyrimidine-5-carboxylate], the IC50 was at most 1 µM. The value for `CCOC(=O)c1cnc(NCCNc2ncc(C#N)c(N)n2)nc1-c1ccc(C#N)cc1` [ethyl 2-({2-[(4-amino-5-cyanopyrimidin-2-yl)amino]ethyl}amino)-4-(4-cyanophenyl)pyrimidine-5-carboxylate] was at most 1 µM; that for `CCOC(=O)c1cnc(NCCNc2ncc([N+](=O)[O-])c(N)n2)nc1-c1ccc(C#N)cc1` [ethyl 2-({2-[(4-amino-5-nitropyrimidin-2-yl)amino]ethyl}amino)-4-(4-cyanophenyl)pyrimidine-5-carboxylate] was at most 1 µM. For `CCOC(=O)c1cnc(NCCNc2ccc(N)cn2)nc1-c1ccc(C#N)cc1` [ethyl 2-({2-[(5-amino(2-pyridyl))amino]ethyl}amino)-4-(4-cyanophenyl)pyrimidine-5-carboxylate], the IC50 was at most 10 µM. Consider `CCOC(=O)c1cnc(NCCNc2ccc(C#N)cn2)nc1-c1ccc(C#N)cc1` [ethyl 2-({2-[(5-cyano(2-pyridyl))amino]ethyl}amino)-4-(4-cyanophenyl)pyrimidine-5-carboxylate], for which the IC50 was at most 1 µM. For the compound `CCOC(=O)c1cnc(NCCNc2ccc([N+](=O)[O-])cn2)nc1-c1cccc([N+](=O)[O-])c1` [ethyl 2-({2-[(5-nitro(2-pyridyl))amino]ethyl}amino)-4-(3-nitrophenyl)pyrimidine-5-carboxylate], the IC50 is at most 10 µM. Turning to `CCOC(=O)c1cnc(NCCNc2ccc([N+](=O)[O-])cn2)nc1-c1cnc2ccccc2c1` [ethyl 2-({2-[(5-nitro(2-pyridyl))amino]ethyl}amino)-4-(3-quinolyl)pyrimidine-5-carboxylate], the IC50 is at most 10 µM. Regarding `CCOC(=O)c1cnc(NCCNc2ccc([N+](=O)[O-])cn2)nc1-c1ccc(-n2cnnc2)cc1` [ethyl 2-({2-[(5-nitro(2-pyridyl))amino]ethyl}amino)-4-(4-(1,2,4-triazol-4-yl)phenyl)pyrimidine-5-carboxylate], the IC50 is at most 1 µM.

In the case of `CCOC(=O)c1cnc(NCCNc2ccc([N+](=O)[O-])cn2)nc1-c1ccc(-c2ccccc2)cc1` [ethyl 2-({2-[(5-nitro(2-pyridyl))amino]ethyl}amino)-4-(4-phenylphenyl)pyrimidine-5-carboxylate], the IC50 was at most 10 µM.

Take `CCOC(=O)c1cnc(NCCNc2ccc([N+](=O)[O-])cn2)nc1-c1ccncc1` [ethyl 2-({2-[(5-nitro(2-pyridyl))amino]ethyl}amino)-4-(4-pyridyl)pyrimidine-5-carboxylate]: the IC50 was at most 1 µM. Consider `CCOC(=O)c1cnc(NCCNc2ccc([N+](=O)[O-])cn2)nc1-c1ccc(S(N)(=O)=O)cc1` [ethyl 2-({2-[(5-nitro(2-pyridyl))amino]ethyl}amino)-4-(4-sulfamoylphenyl)pyrimidine-5-carboxylate], for which the IC50 was at most 10 µM. Regarding `CCOC(=O)c1cnc(NCCNc2ccc([N+](=O)[O-])cn2)nc1-c1cccc(C(F)(F)F)c1` [ethyl 2-({2-[(5-nitro(2-pyridyl))amino]ethyl}amino)-4-[3-(trifluoromethyl)phenyl]pyrimidine-5-carboxylate], the IC50 is at most 10 µM. With `CCOC(=O)c1cnc(NCCNc2ccc([N+](=O)[O-])cn2)nc1-c1ccc(C(F)(F)F)cc1` [ethyl 2-({2-[(5-nitro(2-pyridyl))amino]ethyl}amino)-4-[4-(trifluoromethyl)phenyl]pyrimidine-5-carboxylate] the figure was at most 1 µM; with `CCOC(=O)c1cnc(NCCNc2ccc([N+](=O)[O-])c(N)n2)nc1-c1ccc(N2CCOCC2)cc1` [ethyl 2-({2-[(6-amino-5-nitro(2-pyridyl))amino]-ethyl}amino)-4-(4-morpholin-4-ylphenyl)pyrimidine-5-carboxylate], at most 1 µM; with `CCOC(=O)c1cnc(NCCNc2ccc([N+](=O)[O-])c(N)n2)nc1-c1ccc(Cl)cc1Cl` [ethyl 2-({2-[(6-amino-5-nitro(2-pyridyl))amino]ethyl}amino)-4-(2,4-dichlorophenyl)-pyrimidine-5-carboxylate], at most 1 µM. As to `CCOC(=O)c1cnc(NCCNc2ccc([N+](=O)[O-])c(N)n2)nc1-c1ccc(-c2cnco2)cc1` [ethyl 2-({2-[(6-amino-5-nitro(2-pyridyl))amino]ethyl}amino)-4-(4-(1,3-oxazol-5-yl)phenyl)pyrimidine-5-carboxylate], the IC50 is at most 1 µM. With `CCOC(=O)c1cnc(NCCNc2ccc([N+](=O)[O-])c(N)n2)nc1-c1ccc(C#N)cc1` [ethyl 2-({2-[(6-amino-5-nitro(2-pyridyl))amino]ethyl}amino)-4-(4-cyanophenyl)pyrimidine-5-carboxylate] the figure was at most 1 µM; with `CCOC(=O)c1cnc(NCCNc2ccc([N+](=O)[O-])cn2)nc1-c1ccc(Cl)cc1Cl` [ethyl 4-(2,4-dichlorophenyl)-2-({2-[(5-nitro(2-pyridyl))amino]ethyl}amino)-pyrimidine-5-carboxylate], at most 1 µM. Take `CCOC(=O)c1cnc(NCCNc2ccc([N+](=O)[O-])cn2)nc1-c1ccc(F)cc1F` [ethyl 4-(2,4-difluorophenyl)-2-({2-[(5-nitro(2-pyridyl))amino]ethyl}amino)pyrimidine-5-carboxylate]: the IC50 is at most 10 µM. For `CCOC(=O)c1cnc(NCCc2ccccn2)nc1-c1ccco1` [ethyl 4-(2-furyl)-2-[(2-(2-pyridyl)ethyl)amino]pyrimidine-5-carboxylate], the IC50 was at most 10 µM. With `CCOC(=O)c1cnc(NCCNc2ccc([N+](=O)[O-])cn2)nc1-c1ccc2ccccc2c1` [ethyl 4-(2-naphthyl)-2-({2-[(5-nitro(2-pyridyl))amino]-ethyl}amino)pyrimidine-5-carboxylate] the figure was at most 1 µM; with `CCOC(=O)c1cnc(NCCNc2ccc([N+](=O)[O-])cn2)nc1-c1ccc(Cl)c(Cl)c1` [ethyl 4-(3,4-dichlorophenyl)-2-({2-[(5-nitro(2-pyridyl))amino]ethyl}amino)pyrimidine-5-carboxylate], at most 10 µM; with `CCOC(=O)c1cnc(NCCNc2ccc([N+](=O)[O-])cn2)nc1-c1ccc(F)c(F)c1` [ethyl 4-(3,4-difluorophenyl)-2-({2-[(5-nitro(2-pyridyl))amino]ethyl}amino)pyrimidine-5-carboxylate], at most 1 µM.

Regarding `CCOC(=O)c1cnc(NCCNc2ccc([N+](=O)[O-])cn2)nc1-c1ccc(OC)c(OC)c1` [ethyl 4-(3,4-dimethoxyphenyl)-2-({2-[(5-nitro(2-pyridyl))amino]ethyl}amino)pyrimidine-5-carboxylate], the IC50 was at most 10 µM. The value for `CCOC(=O)c1cnc(NCCNc2ccc([N+](=O)[O-])cn2)nc1-c1ccc(C)c(C)c1` [ethyl 4-(3,4-dimethylphenyl)-2-[{2-[(5-nitro(2-pyridyl))amino]ethyl}amino)pyrimidine-5-carboxylate] was at most 10 µM. The value for `CCOC(=O)c1cnc(NCCNc2ccc([N+](=O)[O-])cn2)nc1-c1cc(Cl)cc(Cl)c1` [ethyl 4-(3,5-dichlorophenyl)-2-({2-[(5-nitro(2-pyridyl))amino]ethyl}amino)-pyrimidine-5-carboxylate] was at most 10 µM; that for `CCOC(=O)c1cnc(NCCNc2ccc([N+](=O)[O-])cn2)nc1-c1cccc(C#N)c1` [ethyl 4-(3-cyanophenyl)-2-({2-[(5-nitro(2-pyridyl))amino]ethyl}amino)pyrimidine-5-carboxylate] was at most 10 µM.

For `CCOC(=O)c1cnc(NCCNc2ccc([N+](=O)[O-])cn2)nc1-c1cccc(F)c1` [ethyl 4-(3-fluorophenyl)-2-({2-[(5-nitro(2-pyridyl))amino]ethyl}amino)pyrimidine-5-carboxylate], the IC50 is at most 10 µM. With `CCOC(=O)c1cnc(NCCc2ccccn2)nc1-c1cccc([N+](=O)[O-])c1` [ethyl 4-(3-nitrophenyl)-2-[(2-(2-pyridyl)ethyl)-amino]pyrimidine-5-carboxylate] the figure was at most 10 µM; with `CCOC(=O)c1cnc(NCCNc2ccccn2)nc1-c1cccc([N+](=O)[O-])c1` [ethyl 4-(3-nitrophenyl)-2-{[2-(2-pyridylamino)ethyl]amino}pyrimidine-5-carboxylate], at most 10 µM.

As for `CCOC(=O)c1cnc(NCCNc2ccc([N+](=O)[O-])cn2)nc1-c1ccc(-c2nnn[nH]2)cc1` [ethyl 4-(4-(1H-1,2,3,4-tetraazol-5-yl)phenyl)-2-({2-[(5-nitro(2-pyridyl))amino]ethyl}amino)pyrimidine-5-carboxylate], the 50% inhibitory concentration (IC50) is at most 1 µM.
